Drawing on publication PMC7976604 (ACS Catalysis, 2021), this text covers inhibition for one compound.

The test deals with T1, PA0254/HudA (PA0254^UbiX) (Pseudomonas aeruginosa, UniProt Q9I6N5).
T1 sequence (Q9I6N5 1-496): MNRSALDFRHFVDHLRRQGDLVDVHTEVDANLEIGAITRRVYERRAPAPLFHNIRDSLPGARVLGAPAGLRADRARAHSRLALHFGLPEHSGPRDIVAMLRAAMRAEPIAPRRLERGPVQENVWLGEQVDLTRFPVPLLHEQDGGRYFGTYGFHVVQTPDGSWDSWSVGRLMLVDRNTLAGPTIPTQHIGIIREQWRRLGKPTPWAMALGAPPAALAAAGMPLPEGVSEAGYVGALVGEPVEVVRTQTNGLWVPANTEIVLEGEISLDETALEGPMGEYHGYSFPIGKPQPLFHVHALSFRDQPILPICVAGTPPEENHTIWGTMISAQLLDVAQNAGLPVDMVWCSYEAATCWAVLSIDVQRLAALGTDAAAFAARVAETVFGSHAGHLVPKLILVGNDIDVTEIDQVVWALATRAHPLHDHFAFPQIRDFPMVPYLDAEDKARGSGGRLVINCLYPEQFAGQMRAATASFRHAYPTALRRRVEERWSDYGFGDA
The test is described as follows: inhibition of P2C decarboxylation, histidine-eluted enzyme. To be noted: read-out: % inhibition at 10 mM. Format: biochemical.

The term inhibition denotes how much of the control response was suppressed. With `c1c[nH]cn1` [imidazole], the inhibition at 10000 µM is around 50%.
